Legend:
NTS1R [1] = biological target: T1, NTS1R (Homo sapiens, UniProt P30989); assay: Radiochemical association and dissociation kinetics, adherent CHO-hNTS1R cells; type: binding
Procedure: (§1) Binding of both ligands, [^3H]13 and [^3H]18, was studied at adherent and suspended intact CHO-hNTS1R cells, and binding of [^3H]13 was additionally studied using CHO-hNTS1R cell membrane preparations (saturation and competition binding, kinetic studies). Furthermore, saturation binding experiments were performed with both ligands at intact adherent HT-29 cells. All experiments were performed in triplicate except for dissociation experiments performed with suspended cells in 50 mL flacon tubes (performed in duplicate). To reduce radioligand consumption in the aforementioned experiments, [^3H]13 and [^3H]18 were 1:1 diluted with 13 and 18, respectively (for the purpose of easier reading these mixtures are denoted "[^3H]13" and "[^3H]18"in the following). All samples were incubated at 23 ± 1 °C in the dark under gentle shaking (incubation times are outlined below). DPBS1 served as binding buffer throughout. In the case of experiments performed with cell suspensions, CHO-hNTS1R cells were seeded in T75 culture flasks 3–4 days prior to the experiment. On the day of the experiment, cells were detached by trypsinization, suspended in DPBS1 and centrifuged at 200g at rt for 5 min. Cells were resuspended in binding buffer and the cell density was adjusted to 1.5 × 10^5 to 2.5 × 10^5 cells/mL. Samples involving suspended cells or membrane preparations were prepared and incubated in 96-well polypropylene plates (Brand 701330, Wertheim, Germany) or in 50 mL polypropylene falcon tubes (Sarstedt), and the same filtration procedure for separating free radioligand from cell- or membrane bound radioligand was applied for all kind of binding experiments: after completed incubation, cells or cell membranes were collected on GF/C filter mats (0.26 mm; Whatman, Maidstone, U.K.) (pretreated with 0.3% polyethylenimine for 30 min) using an in-house manufactured harvester for 96-well plates (precision engineering workshop of the University of Regensburg, Regensburg, Germany), and the wells of the plate and the cells on the filter mat were immediately washed twice with ice-cold PBS (2 × 200 μL) (note: when samples were incubated in falcon tubes, 200-μL aliquots were transferred to the wells of a 96-well polypropylene plate after the incubation period, immediately followed by the filtration procedure). Filter pieces for each well were punched out and transferred into 1450–401 96-well sample plates (PerkinElmer, Rodgau, Germany), followed by the addition of Rotiscint Routine (Carl Roth, Karlsruhe, Germany) (200 μL). The plates were sealed with transparent sealing tape (Greiner EASYseal, part no. 676001, Greiner Bio-One) and shaken in the dark overnight before measurement of the radioactivity (dpm) using a MicroBeta2 plate counter equipped with six pairs of photomultiplier tubes (PerkinElmer).
For experiments involving adherent cells, CHO-hNTS1R (25,000 cells per well) or HT-29 (35,000 cells per well) cells were seeded one day prior to the experiment in white 96-well plates with clear bottom (VWR 732–3740). On the day of the experiment, the medium was aspirated and the cells (confluency: 70–90%) were washed with PBS (200 μL) followed by covering with DPBS1 (160 μL) and the addition of the ligands as outlined below. After completed incubation, the liquid was aspirated and the wells were washed twice with ice-cold PBS (200 μL) followed by the addition of lysis solution (urea (8 M), acetic acid (3 M) and Triton-X (1%) in water) (25 μL). After shaking for at least 20 min, liquid scintillator (UltimaGold, PerkinElmer) (200 μL) was added and the plates were sealed with a transparent sealing tape (permanent seal for microplates, PerkinElmer, prod. no. 1450–461). The sealed plates were turned upside down several times to achieve complete mixing of scintillator and lysis solution and were kept in the dark for at least 3 h before measurement of the radioactivity (dpm) with the MicroBeta2 plate counter. […]

NTS1R [2] = biological target: T1, NTS1R; assay: Radiochemical saturation binding, adherent HT-29 cells; conditions: 23 °C
Procedure: Binding of both ligands, [^3H]13 and [^3H]18, was studied at adherent and suspended intact CHO-hNTS1R cells, and binding of [^3H]13 was additionally studied using CHO-hNTS1R cell membrane preparations (saturation and competition binding, kinetic studies). Furthermore, saturation binding experiments were performed with both ligands at intact adherent HT-29 cells. All experiments were performed in triplicate except for dissociation experiments performed with suspended cells in 50 mL flacon tubes (performed in duplicate). To reduce radioligand consumption in the aforementioned experiments, [^3H]13 and [^3H]18 were 1:1 diluted with 13 and 18, respectively (for the purpose of easier reading these mixtures are denoted "[^3H]13" and "[^3H]18"in the following). All samples were incubated at 23 ± 1 °C in the dark under gentle shaking (incubation times are outlined below). DPBS1 served as binding buffer throughout. In the case of experiments performed with cell suspensions, CHO-hNTS1R cells were seeded in T75 culture flasks 3–4 days prior to the experiment. […] The plates were sealed with transparent sealing tape (Greiner EASYseal, part no. 676001, Greiner Bio-One) and shaken in the dark overnight before measurement of the radioactivity (dpm) using a MicroBeta2 plate counter equipped with six pairs of photomultiplier tubes (PerkinElmer). […]

NTS1R [3] = biological target: T1, NTS1R; assay: Radiochemical association and dissociation kinetics, suspended CHO-hNTS1R cells; type: binding
Procedure: as §1
To start the association, 20 μL of an 18 nM solution of [^3H]13 or 20 μL of a 12 nM solution of [^3H]18 in DPBS1 (final concentrations: 1.8 or 1.2 nM) were added. The samples of the different time points were prepared in reversed order (longest incubation time first, shortest incubation time last) so that the cells of all samples could be harvested simultaneously. The time span for sample incubation was 1–180 min. Adherent cells: 96-well white/clear bottom plates with adherent cells were prefilled with DPBS1 (160 μL) after initial washing of the cells. […] To start the association, 20 μL of a 13 nM solution of [^3H]13 or 20 μL of an 11 nM solution of [^3H]18 in DPBS1 (final concentrations: 1.3 or 1.1 nM) were added. When the incubation time was reached, all liquid was removed by suction followed by washing (2 × ice-cold PBS) and cell lysis. The samples of the different time points were prepared in reversed order (longest incubation time first, shortest incubation time last) so that the cells of all samples could be washed and lysed simultaneously. […]

NTS1R [4] = biological target: T1, NTS1R; assay: Radiochemical competition binding, adherent CHO-hNTS1R cells; conditions: labeled probe [^3H]13 (1.3 nM), 90 min, 23 °C, read-out: RC adherent cells: pKi ± SEM (converted)
NTS1R [5] = biological target: T1, NTS1R; assay: Radiochemical competition binding, suspended CHO-hNTS1R cells; conditions: labeled probe [^3H]13 (1.8 nM), 90 min, 23 °C, read-out: RC cell suspension: pKi ± SEM (converted)

T1 sequence (P30989 whole entry): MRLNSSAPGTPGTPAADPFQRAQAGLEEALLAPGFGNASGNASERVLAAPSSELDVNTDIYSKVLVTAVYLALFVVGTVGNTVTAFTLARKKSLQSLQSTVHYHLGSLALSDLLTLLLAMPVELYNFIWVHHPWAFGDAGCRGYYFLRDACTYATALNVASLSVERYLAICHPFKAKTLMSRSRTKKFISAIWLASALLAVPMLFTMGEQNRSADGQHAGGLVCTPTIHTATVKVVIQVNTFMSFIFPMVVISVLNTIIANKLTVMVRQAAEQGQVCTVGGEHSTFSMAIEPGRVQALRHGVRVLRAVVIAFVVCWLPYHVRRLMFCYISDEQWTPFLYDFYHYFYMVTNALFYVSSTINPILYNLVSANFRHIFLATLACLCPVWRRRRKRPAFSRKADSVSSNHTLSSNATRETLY

Which results are given for `CCC(=O)NCCCCNC(=O)NC(=N)NCCC[C@H](NC(=O)[C@@H]1CCCN1C(=O)[C@@H](NC(=O)CCc1cn(CCCNC(=O)c2ccc(-c3c4ccc(=[N+](C)C)cc-4oc4cc(N(C)C)ccc34)c(C(=O)[O-])c2)nn1)C1CCNCC1)C(=O)N[C@@H](CCCNC(=N)N)C(=O)N1CCC[C@H]1C(=O)N[C@@H](Cc1ccc(O)cc1)C(=O)N[C@H](C(=O)N[C@@H](CC(C)C)C(=O)O)[C@@H](C)CC` [[^3H]13]?
koff (NTS1R [1]; adherent CHO-hNTS1R cells, 23 °C, read-out: koff [min^–1] (converted)): 0.000233 s⁻¹; kobs(slow) [min^–1] (NTS1R [1]; adherent CHO-hNTS1R cells, biphasic exponential fit): 0.011 ± 0.001 ^b min^–1; kon (NTS1R [1]; adherent CHO-hNTS1R cells, calculated from koff, kobs(fast) and ligand concentration, read-out: kon(fast) [min^–1 nM^–1] (converted)): 5.5e+06 M⁻¹ s⁻¹; Kd (NTS1R [1]; adherent CHO-hNTS1R cells, koff/kon(fast), read-out: Kd(kin)): 0.41 ± 0.24 nM; kobs(fast) [min^–1] (NTS1R [1]; adherent CHO-hNTS1R cells, monophasic fit of initial association phase, 1.3 nM [^3H]13 or […] [^3H]18): 0.57 ± 0.08 ^a min^–1; Proportion of fast kinetic component (association) (NTS1R [1]; adherent cells): 19%; Proportion of slow kinetic component (association) (NTS1R [1]; adherent cells): 81%; Kd (NTS1R [2]): 1.2 ± 0.1 nM; koff (NTS1R [3]; suspended CHO-hNTS1R cells (50 mL falcon tubes), 23 °C, read-out: koff [min^–1] (converted)): 0.0006 s⁻¹; kobs(slow) [min^–1] (NTS1R [3]; suspended CHO-hNTS1R cells, biphasic exponential fit): 0.051 ± 0.001 ^b min^–1; kon (NTS1R [3]; suspended CHO-hNTS1R cells, calculated from koff, kobs(fast) and ligand concentration, read-out: kon(fast) [min^–1 nM^–1] (converted)): 1.35e+07 M⁻¹ s⁻¹; Kd (NTS1R [3]; suspended CHO-hNTS1R cells, koff/kon(fast), read-out: Kd(kin)): 0.044 ± 0.02 nM; kobs(fast) [min^–1] (NTS1R [3]; suspended CHO-hNTS1R cells, monophasic fit of initial association phase, 1.8 nM [^3H]13 or […] [^3H]18): 1.5 ± 0.3 ^a min^–1; Proportion of fast kinetic component (association) (NTS1R [3]; suspended cells): 21%; Proportion of slow kinetic component (association) (NTS1R [3]; suspended cells): 79%

`CCC(=O)NCCCCNC(=O)N=C(N)NCCC[C@H](NC(=O)[C@@H]1CCCN1C(=O)[C@@H](NC(=O)CCc1cn(CCCNC(=O)c2ccc(-c3c4ccc(=[N+](C)C)cc-4oc4cc(N(C)C)ccc34)c(C(=O)[O-])c2)nn1)C1CCNCC1)C(=O)N[C@@H](CCCNC(=N)N)C(=O)N1CCC[C@H]1C(=O)N[C@@H](Cc1ccc(O)cc1)C(=O)N[C@H](C(=O)N[C@@H](CC(C)C)C(=O)O)[C@@H](C)CC` [Compound 13, N^α-(3-(1-N-((1-Carboxylato-2-(6-(dimethylamino)-3-(dimethyliminio)-3H-xanthen-9-yl)phen-5-yl)1-oxomethyl)aminoprop-3-yl-1H-1,2,3-triazol-4-yl)propanoyl)-2-(piperidin-4-yl)-Gly-Pro-N^ω-[(4-(N-propanoyl)aminobutyl)aminocarbonyl]Arg-Arg-Pro-Tyr-Ile-Leu Tris(hydrotrifluoroacetate)] was tested. Which Ki (NTS1R [4]) did it give?
The Ki was 1.51 nM.

And the Ki (NTS1R [5])?
Its Ki is 4.68 nM.
